# Active and inactive are the calls of the source. Rule as the data show it, for most assays here: actives have a measured EC50 and inactives only a lower limit.
# Columns and labels:
# [1] = molecular target: T1, Heat shock factor protein 1 (Mus musculus, UniProt P38532); assay: inhibition of MG132-induced HSE-luciferase signal, confirmation, cell-based, NIH3T3, luminescence, dose retest (AID 2382); assay type: functional;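 also: NIH3T3 fibroblasts with HSF1-driven luciferase reporter stressed by proteasome inhibitor MG132; luminescence from HSF1-driven luciferase expression after 8 hours of MG132 stress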
# T1 sequence (P38532 whole entry): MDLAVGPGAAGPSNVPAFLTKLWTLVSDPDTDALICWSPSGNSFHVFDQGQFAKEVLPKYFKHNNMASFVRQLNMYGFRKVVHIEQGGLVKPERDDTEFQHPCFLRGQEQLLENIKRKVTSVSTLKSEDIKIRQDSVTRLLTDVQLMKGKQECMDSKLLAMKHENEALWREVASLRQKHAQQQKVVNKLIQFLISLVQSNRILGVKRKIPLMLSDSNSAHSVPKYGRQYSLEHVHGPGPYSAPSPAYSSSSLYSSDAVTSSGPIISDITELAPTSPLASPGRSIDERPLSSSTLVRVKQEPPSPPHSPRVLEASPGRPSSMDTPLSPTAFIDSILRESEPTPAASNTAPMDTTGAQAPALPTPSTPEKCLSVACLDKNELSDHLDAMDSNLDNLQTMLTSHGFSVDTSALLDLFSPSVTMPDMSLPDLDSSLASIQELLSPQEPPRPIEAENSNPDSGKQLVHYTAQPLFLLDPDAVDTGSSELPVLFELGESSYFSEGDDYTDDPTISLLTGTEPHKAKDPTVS
# [2] = molecular target: T2, Replicative DNA helicase DnaB (Mycobacterium tuberculosis, UniProt P9WMR3); assay: DnaB intein splicing inhibitors, dose response, biochemical, cell-free fluorescence (AID 449749); assay type: functional
# T2 sequence (P9WMR3 whole entry): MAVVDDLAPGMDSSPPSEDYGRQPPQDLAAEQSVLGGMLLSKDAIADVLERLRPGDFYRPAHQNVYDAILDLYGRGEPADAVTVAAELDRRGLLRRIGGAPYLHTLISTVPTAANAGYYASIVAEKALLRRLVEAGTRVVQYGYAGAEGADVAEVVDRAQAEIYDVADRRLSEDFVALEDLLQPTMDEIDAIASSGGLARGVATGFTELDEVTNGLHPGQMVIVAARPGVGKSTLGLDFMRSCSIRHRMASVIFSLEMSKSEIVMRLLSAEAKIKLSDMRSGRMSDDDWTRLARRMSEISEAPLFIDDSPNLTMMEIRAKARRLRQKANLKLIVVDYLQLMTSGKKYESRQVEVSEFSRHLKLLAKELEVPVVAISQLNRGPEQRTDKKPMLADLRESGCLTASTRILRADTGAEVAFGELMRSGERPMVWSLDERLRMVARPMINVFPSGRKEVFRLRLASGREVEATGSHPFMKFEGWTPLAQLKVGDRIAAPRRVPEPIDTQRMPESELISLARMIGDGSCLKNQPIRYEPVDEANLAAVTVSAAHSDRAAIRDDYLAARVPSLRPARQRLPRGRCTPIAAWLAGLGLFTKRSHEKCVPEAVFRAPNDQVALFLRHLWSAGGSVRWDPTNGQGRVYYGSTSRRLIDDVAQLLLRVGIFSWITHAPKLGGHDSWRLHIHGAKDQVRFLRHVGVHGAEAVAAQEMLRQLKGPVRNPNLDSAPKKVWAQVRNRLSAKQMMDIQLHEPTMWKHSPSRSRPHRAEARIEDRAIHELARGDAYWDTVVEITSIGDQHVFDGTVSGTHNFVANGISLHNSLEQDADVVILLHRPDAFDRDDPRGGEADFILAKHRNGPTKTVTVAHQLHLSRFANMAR
# [3] = molecular target: Genome polyprotein (dengue virus type 2, UniProt P29990); assay: Dengue-2 NS5 methyltransferase inhibitors, primary screen, biochemical, confirmation dose response (AID 588689); assay type: functional
# Sequence of Genome polyprotein (P29990 2492-3391 limits assumed): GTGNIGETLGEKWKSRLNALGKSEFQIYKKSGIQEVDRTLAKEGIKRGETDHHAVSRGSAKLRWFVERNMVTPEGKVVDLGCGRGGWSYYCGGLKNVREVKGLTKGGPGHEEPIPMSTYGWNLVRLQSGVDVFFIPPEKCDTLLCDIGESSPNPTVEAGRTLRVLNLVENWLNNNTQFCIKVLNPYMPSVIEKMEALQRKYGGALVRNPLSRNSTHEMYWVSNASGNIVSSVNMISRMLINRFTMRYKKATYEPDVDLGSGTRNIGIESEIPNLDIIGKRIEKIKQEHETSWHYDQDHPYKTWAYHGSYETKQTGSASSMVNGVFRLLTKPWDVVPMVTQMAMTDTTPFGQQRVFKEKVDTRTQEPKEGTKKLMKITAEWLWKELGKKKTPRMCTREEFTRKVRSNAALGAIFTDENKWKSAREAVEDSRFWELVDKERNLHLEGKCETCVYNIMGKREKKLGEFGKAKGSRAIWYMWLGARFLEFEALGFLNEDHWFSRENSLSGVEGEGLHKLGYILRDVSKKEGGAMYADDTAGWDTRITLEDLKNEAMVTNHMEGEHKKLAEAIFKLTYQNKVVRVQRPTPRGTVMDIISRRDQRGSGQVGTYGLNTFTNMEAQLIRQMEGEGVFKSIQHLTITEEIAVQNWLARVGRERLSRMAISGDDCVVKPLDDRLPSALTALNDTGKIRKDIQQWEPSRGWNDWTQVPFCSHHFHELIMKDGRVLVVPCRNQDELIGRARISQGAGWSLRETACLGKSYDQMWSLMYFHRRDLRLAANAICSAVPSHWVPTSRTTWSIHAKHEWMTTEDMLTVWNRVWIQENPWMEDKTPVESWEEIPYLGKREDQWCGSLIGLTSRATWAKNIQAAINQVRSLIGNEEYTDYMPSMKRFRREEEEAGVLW
# [4] = molecular target: T3, Protein RecA (Mycobacterium tuberculosis, UniProt P9WHJ3); assay: Fluorescence Cell-Free Homogeneous Dose Retest to Identify Inhibitors of RecA-Intein Splicing Activity. [Related pubchem assays (depositor defined):AID2097, AID2223, AID489010, AID492950]; assay type: functional
# T3 sequence (P9WHJ3 whole entry): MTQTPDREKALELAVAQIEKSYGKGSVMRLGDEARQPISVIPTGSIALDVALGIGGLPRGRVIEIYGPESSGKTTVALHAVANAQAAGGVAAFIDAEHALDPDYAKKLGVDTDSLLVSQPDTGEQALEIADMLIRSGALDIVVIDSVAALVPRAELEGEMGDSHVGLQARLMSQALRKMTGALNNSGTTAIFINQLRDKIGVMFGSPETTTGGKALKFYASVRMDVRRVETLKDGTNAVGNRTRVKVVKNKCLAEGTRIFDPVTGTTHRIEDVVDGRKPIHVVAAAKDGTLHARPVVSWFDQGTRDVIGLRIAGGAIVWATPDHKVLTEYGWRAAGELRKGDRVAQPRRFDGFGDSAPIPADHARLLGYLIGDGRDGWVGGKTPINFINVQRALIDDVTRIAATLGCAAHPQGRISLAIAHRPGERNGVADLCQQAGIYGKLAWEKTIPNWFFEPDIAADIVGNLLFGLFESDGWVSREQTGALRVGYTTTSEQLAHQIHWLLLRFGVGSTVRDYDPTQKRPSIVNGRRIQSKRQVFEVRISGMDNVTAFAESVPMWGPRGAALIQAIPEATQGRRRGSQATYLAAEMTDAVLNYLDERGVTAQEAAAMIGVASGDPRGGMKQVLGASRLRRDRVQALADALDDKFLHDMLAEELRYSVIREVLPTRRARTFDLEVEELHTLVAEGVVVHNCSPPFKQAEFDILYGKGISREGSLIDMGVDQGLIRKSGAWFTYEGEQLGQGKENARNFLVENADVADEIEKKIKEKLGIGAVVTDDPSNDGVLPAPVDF
# [5] = molecular target: Large T antigen (Simian virus 40, UniProt P03070); assay type: functional, Betapolyomavirus macacae;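 also: Confirmatory-stage PubChem screen for compounds that inhibit SV40 T antigen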
# Sequence of Large T antigen (P03070 whole entry): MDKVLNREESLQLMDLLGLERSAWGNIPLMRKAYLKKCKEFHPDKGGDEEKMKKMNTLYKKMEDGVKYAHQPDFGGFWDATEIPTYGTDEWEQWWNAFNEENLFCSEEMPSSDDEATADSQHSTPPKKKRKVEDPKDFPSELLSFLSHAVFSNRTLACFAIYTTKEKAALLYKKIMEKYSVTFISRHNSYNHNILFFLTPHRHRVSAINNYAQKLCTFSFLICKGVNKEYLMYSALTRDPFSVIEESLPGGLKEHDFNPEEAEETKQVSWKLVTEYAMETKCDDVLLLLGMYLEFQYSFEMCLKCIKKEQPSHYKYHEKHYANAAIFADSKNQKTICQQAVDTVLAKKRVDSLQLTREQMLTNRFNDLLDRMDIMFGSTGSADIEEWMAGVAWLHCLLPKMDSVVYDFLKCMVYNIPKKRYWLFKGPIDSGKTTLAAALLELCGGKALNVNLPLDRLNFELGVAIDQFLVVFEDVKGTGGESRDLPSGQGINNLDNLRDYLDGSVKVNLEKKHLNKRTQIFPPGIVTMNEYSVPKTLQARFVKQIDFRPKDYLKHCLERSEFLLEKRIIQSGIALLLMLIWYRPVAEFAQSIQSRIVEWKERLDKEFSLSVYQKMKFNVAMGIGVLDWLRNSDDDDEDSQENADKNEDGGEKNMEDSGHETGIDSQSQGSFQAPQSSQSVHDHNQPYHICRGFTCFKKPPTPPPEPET
# [6] = molecular target: T4, Zinc finger protein mex-5 (Caenorhabditis elegans, UniProt Q9XUB2); assay: MEX-5/TCR-2 RNA interaction inhibitors, dose response, biochemical, C. elegans, fluorescence polarization (AID 1960)
# T4 sequence (Q9XUB2 whole entry): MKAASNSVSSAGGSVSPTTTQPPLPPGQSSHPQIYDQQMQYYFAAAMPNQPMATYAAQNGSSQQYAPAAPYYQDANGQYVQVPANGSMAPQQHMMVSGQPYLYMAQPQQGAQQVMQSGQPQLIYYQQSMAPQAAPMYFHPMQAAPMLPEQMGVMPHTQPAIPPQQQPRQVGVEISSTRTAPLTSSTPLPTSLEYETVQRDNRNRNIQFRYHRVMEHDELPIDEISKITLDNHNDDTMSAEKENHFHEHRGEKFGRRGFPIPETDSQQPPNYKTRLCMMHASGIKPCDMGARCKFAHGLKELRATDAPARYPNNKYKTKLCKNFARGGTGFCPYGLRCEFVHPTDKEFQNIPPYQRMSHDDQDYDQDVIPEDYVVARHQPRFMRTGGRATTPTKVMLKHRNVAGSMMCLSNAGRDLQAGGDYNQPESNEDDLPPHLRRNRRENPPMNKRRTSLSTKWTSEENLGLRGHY
# [7] = molecular target: T5, Voltage-gated N-type calcium channel alpha-1B subunit/Amyloid beta A4 precursor protein-binding family A member 1 (Homo sapiens, UniProt Q00975+Q02410); assay type: protein assay
# T5 sequence (Q00975 whole entry): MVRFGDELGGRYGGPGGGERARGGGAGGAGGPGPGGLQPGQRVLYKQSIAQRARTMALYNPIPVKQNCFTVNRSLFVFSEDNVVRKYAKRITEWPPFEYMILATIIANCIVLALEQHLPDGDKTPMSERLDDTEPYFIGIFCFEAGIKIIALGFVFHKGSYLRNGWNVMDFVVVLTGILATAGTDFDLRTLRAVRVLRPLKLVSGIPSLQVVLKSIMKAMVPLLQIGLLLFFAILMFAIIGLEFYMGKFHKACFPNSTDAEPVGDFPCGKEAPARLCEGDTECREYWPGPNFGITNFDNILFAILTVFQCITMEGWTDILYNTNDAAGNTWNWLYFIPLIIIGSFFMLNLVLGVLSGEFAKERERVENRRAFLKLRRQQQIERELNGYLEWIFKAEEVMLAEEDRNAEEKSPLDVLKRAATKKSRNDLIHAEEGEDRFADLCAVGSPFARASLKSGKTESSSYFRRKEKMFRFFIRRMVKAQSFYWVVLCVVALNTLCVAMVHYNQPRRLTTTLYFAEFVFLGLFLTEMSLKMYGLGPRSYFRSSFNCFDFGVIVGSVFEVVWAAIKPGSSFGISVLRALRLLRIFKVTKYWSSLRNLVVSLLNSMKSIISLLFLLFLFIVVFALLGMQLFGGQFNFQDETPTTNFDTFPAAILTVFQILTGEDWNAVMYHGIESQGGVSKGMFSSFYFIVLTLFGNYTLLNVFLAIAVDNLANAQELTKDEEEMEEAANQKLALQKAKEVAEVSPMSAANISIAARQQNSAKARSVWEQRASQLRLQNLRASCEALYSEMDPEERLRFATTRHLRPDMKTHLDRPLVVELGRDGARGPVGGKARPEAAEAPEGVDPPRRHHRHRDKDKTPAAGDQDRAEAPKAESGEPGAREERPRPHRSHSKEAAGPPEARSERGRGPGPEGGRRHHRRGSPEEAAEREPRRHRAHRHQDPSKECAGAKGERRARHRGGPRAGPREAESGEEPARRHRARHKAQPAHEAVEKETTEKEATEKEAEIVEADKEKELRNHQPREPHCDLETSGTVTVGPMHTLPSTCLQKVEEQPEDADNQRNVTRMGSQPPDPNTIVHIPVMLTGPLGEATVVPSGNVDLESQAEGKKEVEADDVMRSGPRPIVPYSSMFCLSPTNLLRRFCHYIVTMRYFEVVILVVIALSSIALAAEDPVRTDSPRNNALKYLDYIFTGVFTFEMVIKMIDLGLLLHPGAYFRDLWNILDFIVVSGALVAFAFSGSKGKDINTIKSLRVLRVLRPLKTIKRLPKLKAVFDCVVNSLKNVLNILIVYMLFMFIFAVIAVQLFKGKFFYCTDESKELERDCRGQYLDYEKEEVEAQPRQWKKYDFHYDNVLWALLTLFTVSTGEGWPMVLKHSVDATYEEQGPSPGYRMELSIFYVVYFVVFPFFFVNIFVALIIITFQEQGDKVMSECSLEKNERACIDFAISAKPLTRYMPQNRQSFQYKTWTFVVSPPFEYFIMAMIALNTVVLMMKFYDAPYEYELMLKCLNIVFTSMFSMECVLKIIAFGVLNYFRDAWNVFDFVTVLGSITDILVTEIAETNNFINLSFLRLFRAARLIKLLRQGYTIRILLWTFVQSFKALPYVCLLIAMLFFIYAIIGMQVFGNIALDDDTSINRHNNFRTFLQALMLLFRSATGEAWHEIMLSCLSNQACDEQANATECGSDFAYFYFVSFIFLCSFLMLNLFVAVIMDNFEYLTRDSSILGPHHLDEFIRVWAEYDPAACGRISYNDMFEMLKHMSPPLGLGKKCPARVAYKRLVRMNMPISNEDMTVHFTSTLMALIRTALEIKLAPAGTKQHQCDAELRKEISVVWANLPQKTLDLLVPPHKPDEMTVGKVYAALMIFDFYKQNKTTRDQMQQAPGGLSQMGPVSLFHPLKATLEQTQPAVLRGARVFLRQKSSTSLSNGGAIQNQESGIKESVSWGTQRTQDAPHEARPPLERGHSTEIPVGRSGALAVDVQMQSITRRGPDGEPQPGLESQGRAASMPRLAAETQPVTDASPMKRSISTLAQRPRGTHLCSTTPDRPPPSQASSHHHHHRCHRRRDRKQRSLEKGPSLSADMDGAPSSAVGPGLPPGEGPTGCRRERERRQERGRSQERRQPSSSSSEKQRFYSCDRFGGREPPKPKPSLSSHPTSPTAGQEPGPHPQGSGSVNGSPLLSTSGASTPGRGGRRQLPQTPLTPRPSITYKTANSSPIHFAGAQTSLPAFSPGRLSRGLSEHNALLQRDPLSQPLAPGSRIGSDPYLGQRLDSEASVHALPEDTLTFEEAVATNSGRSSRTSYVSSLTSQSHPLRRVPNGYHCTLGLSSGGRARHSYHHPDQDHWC
# T5 sequence (Q02410 whole entry): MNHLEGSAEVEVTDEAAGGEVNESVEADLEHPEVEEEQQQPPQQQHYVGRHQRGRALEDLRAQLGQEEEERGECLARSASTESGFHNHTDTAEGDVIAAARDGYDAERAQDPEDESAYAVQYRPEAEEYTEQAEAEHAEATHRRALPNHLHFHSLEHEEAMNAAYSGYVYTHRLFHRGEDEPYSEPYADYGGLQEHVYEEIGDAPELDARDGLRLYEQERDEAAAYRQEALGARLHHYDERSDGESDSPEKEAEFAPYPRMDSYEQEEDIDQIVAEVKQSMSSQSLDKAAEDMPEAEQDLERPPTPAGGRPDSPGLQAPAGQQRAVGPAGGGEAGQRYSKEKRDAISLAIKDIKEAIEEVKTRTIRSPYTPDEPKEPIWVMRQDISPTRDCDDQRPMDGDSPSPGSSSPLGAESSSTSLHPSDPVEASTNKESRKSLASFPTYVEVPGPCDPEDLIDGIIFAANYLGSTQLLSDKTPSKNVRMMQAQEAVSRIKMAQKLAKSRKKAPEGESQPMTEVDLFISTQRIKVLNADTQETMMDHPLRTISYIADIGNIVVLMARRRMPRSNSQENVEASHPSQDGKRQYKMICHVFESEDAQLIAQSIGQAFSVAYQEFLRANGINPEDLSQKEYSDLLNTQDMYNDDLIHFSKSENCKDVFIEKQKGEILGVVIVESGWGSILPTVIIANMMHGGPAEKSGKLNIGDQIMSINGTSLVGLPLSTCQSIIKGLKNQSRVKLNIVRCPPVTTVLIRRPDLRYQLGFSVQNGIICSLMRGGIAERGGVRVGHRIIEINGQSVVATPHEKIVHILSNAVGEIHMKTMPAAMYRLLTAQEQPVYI
# [8] = molecular target: T5, Voltage-gated N-type calcium channel alpha-1B subunit/Amyloid beta A4 precursor protein-binding family A member 1; assay type: protein assay; remark: listed apart in the source
# [9] = molecular target: T6, RNA-binding protein pos-1 (Caenorhabditis elegans, UniProt G5EF15); assay: inhibitors of POS-1/mex-3 RNA binding, dose response, biochemical, fluorescence polarization (AID 1964);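 also: purified POS-1 fused to maltose binding protein made in E. coli; potency of compounds blocking POS-1 binding to fluorescent RNA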
# T6 sequence (G5EF15 whole entry): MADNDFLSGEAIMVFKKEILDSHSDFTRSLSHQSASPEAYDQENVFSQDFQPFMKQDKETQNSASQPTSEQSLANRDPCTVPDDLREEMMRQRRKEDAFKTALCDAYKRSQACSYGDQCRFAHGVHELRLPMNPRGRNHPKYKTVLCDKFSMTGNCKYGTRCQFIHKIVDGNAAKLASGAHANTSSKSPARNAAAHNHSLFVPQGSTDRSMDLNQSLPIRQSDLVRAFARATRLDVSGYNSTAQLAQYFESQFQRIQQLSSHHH
# [10] = molecular target: T7, Calpain-2 catalytic subunit (Sus scrofa, UniProt P43367); assay: pig calpain II inhibitor potency, dose response, biochemical, fluorogenic peptide substrate (AID 1420); assay type: functional
# T7 sequence (P43367 whole entry): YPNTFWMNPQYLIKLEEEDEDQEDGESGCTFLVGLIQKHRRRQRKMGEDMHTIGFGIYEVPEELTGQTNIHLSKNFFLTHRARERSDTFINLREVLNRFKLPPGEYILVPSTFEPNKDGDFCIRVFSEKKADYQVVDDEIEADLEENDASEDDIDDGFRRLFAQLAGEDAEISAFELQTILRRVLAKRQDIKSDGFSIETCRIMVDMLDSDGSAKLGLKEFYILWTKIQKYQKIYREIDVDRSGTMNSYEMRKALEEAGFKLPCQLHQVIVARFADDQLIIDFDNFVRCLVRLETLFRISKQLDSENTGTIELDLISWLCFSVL
# [11] = inhibitors of SNCA 5'UTR-driven reporter translation, confirmation, H4 neuroglioma cells, luminescence (AID 1988); assay type: functional, cell-based
# [12] = system: BJ; assay: cells; assay type: functional, cell-based; details: Homo sapiens
# [13] = Luminescence Cell-Based Dose Response HTS to Identify Inhibitors of 5'UTR Stem-Loop Driven Prion Protein mRNA Translation in H4 Neuroglioblastoma Cells. [Related pubchem assays: 1827 (Project Summary), 1813 (Primary HTS)]; assay type: functional
# [14] = system: BJ; assay: cytotoxicity toward BJ-TERT-LT-ST fibroblasts, dose response, cell-based, RAS-independent, luminescence (AID 1935); assay type: functional; details: Homo sapiens;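 also: BJ fibroblasts immortalized with TERT plus LT and ST oncogenes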
# [15] = cytotoxicity toward DRD oncogenic fibroblasts, dose response, cell-based, non-viral oncogenic, luminescence (AID 1934); assay type: functional; details: Homo sapiens
# [16] = system: BJ; assay: cytotoxicity toward BJ-TERT fibroblasts, dose response, cell-based, RAS-independent, luminescence (AID 1933); assay type: functional; details: Homo sapiens
# [17] = inhibitors of firefly luciferase expression or activity, dose response, H4 neuroglioma cells, luminescence (AID 1990); assay type: functional, cell-based
smiles,measurement,setting,value
Cc1ccc(SCc2n[nH]c3c2C(c2ccc(C)o2)C(C#N)=C(N)O3)cc1 (centres undefined),EC50,[1],> 195 µM (not active)
same,AC50,[2],61.4 µM (active)
same,IC50,[3],> 100 µM (active)
same,EC50,[4],7.85 µM (active)
COC/C=C/C1=CC2=CC(=O)C(C)(OC(=O)CCC(=O)OC)C(=O)C2=CO1 (centres undefined),IC50,[5],> 100 µM (active)
same,EC50,[6],17 µM (active)
same,IC50,[7],7.43 µM (active)
same,IC50,[8],> 56.8 µM (not active)
same,EC50,[9],22.1 µM (active)
COc1ccc(OC)c(C(c2nnnn2C2CCCC2)N2CCN(c3ccccc3F)CC2)c1 (centres undefined),IC50,[10],1.31 µM (not active)
CNC(=S)N=C(Nc1ccc(C)cc1)c1ccccc1,IC50,[7],> 50 µM (inactive)
same,IC50,[8],2.38 µM (active)
COCCCNc1nnc(Cc2ccc(Cl)cc2)c(O)n1,EC50,[11],6.13 µM (active)
same,EC50,[12],24.2 µM (active)
same,EC50,[13],9.52 µM (active)
same,EC50,[14],0.913 µM (active)
same,EC50,[15],1.04 µM (active)
same,EC50,[16],1.47 µM (active)
same,EC50,[17],9.25 µM (inconclusive)
N#CC1=C(N)Oc2cc(N)ccc2C1c1cc(Br)cs1 (centres undefined),EC50,[12],94.1 µM (inconclusive)
same,EC50,[14],20.6 µM (inconclusive)
same,EC50,[15],15.5 µM (inconclusive)
same,EC50,[16],11.4 µM (active)
Cc1nc(C)n(CC(O)COc2ccc(C(=O)c3ccccc3)cc2)n1 (centres undefined),IC50,[10],13.4 µM (not active)
